From PubChem BioAssay AID1159557 (GlaxoSmithKline (GSK), 2015) come the findings set out here.

This experiment relates to Trypanosoma brucei growth inhibition. As to the kind of experiment: T. brucei growth inhibition (AID 1159557).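 Further: parasites exposed to compound for 48 h before the resazurin readout.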

Activity calls are given as the source filed them. How the calls were made is not given here.

Turning to `Cc1nn2c(NCCCO)c3c(nc2c1-c1cccs1)CCC3`, the IC50 (as a rule, the concentration that gives 50% inhibition) is 0.32 µM.

Take `COCc1cc(Nc2ccc(Cl)cc2)nc(-c2ccccn2)n1`: the 50% inhibitory concentration (IC50) is 20 µM.

Take `Cc1c(Nc2cc(C3CC3)[nH]n2)ccc(C#N)c1Cl`: the IC50 was 0.4 µM.

`Cc1[nH]nc(C(F)(F)F)c1NC(=O)CCn1cc(Cl)c([N+](=O)[O-])n1`: the IC50 was 0.5 µM.

For `COc1ccc2ncc(F)c(NC(=O)C3(O)CCC(NCc4ccc5c(c4)OCCO5)CC3)c2n1` (configuration not stated), the half-inhibitory concentration (IC50) is 0.79 µM.

On to `COc1ccc(OC)c2c(=O)c(Cc3ccccc3)c(C)[nH]c12`, for which the IC50 was > 40 µM (inactive).

As for `CC(C)(C)c1csc(NC(=O)c2ccc([N+](=O)[O-])s2)n1`, the IC50 was 0.2 µM.

Turning to `N#Cc1ccc(Br)cc1[N+](=O)[O-]`, the IC50 is 0.16 µM.

As for `O=C(Nc1nc(-c2ccccn2)cs1)c1ccccc1-n1cnnn1`, the IC50 was 0.63 µM.

With `O=C(NCC1CCCCC1)c1cnns1`, the IC50 was 1 µM.

For `NC(N)=Nc1nc(-c2ccc(NC(N)=NCCN3CCCC3)cc2)cs1`, the IC50 is 0.04 µM.

As for `O=C(c1ccc(O)c(Cl)c1)N1CCN(c2cnccn2)CC1`, the IC50 is > 40 µM (inactive).

In the case of `CN(Cc1nc2ccccc2s1)C(=O)C=Cc1cc2ccccc2o1`, the IC50 is 32 µM.

In the case of `COc1ccc(C(=O)[C@H]2C[C@@H]2CN(Cc2ccccn2)Cc2ccccn2)cc1`, the IC50 is 6.3 µM.

In the case of `Cc1nc(-c2nc(NCc3ccc(Cl)cc3)c3cccnc3c2O)n[nH]1`, the concentration for half-maximal inhibition (IC50) was 0.63 µM.

`CCCC(=O)N(Cc1ccccn1)c1nc2ccccc2s1`: the 50% inhibitory concentration (IC50) was 20 µM.

As for `Cc1cccc(Nc2nc(-c3ccccn3)cs2)n1`, the IC50 is 1 µM.

Turning to `CC(c1cc(Cl)cc(Cl)c1)N(C)c1ncc2c(N)nc(N)nc2n1` (configuration not stated), the IC50 is > 40 µM (inactive).

On to `O=C(Cc1ccccc1)Nc1[nH]nc2sc(C(=O)NC3CCCC3)cc12`, for which the IC50 is 0.4 µM.

In the case of `CC(Cn1ccnc1)NC(=O)C1CC1c1cccc(Cl)c1Cl` (configuration not stated), the IC50 is > 40 µM (inactive).

On to `Cc1cc(Br)sc1CNCCCNc1cc(=O)c2ccccc2[nH]1`, for which the IC50 is 0.063 µM.

For `COc1ccccc1-c1c(C)[nH]c2nc(N)nc(C)c12`, the IC50 was 25 µM.

As for `CN(C)S(=O)(=O)c1ccc(Cl)c(C(=O)Nc2nc(-c3ccccn3)cs2)c1`, the IC50 is 0.5 µM.

Consider `COCCn1c(-c2ccc3c(c2)OCO3)cnc1NCc1ccccc1OC`, for which the IC50 was 20 µM.

Regarding `CS(=O)(=O)N1CCC(Nc2ncc(Br)c(Nc3cccc(F)c3C(N)=O)n2)CC1`, the IC50 is 0.01 µM.

Turning to `O=C(Nc1nc(-c2ccc(F)cc2)cs1)c1ccc([N+](=O)[O-])s1`, the IC50 is 0.25 µM.

As for `CC(=O)Nc1ccc(-c2ccnc(Nc3cccc(C#N)c3)n2)cc1`, the IC50 was 0.63 µM.

For `COc1ccc(C2CC(c3ccccc3Cl)=NN2C(=O)CNC(=O)C2CCC2)cc1` (configuration not stated), the IC50 is 0.32 µM.

As for `CC(C(=O)Nc1ccc(Br)cc1)N1CCN(c2ccc([N+](=O)[O-])cc2)CC1` (configuration not stated), the IC50 was > 40 µM (inactive).

With `c1ccc2c(CCOc3nccnc3-c3ccncc3)c[nH]c2c1`, the IC50 is 32 µM.

As for `O=C(Nc1ccc(C(F)(F)F)cc1)Nc1cccc([N+](=O)[O-])c1`, the IC50 is 2 µM.

Turning to `CNc1nc(C)nc(N2CCc3cc(C(=O)NCc4ccc(-c5ccn[nH]5)cc4Cl)ccc32)n1`, the half-inhibitory concentration (IC50) is 13 µM.

As to `O=C(NC(c1ccc(Cl)cc1)c1cnccn1)C1CCN(C(=O)Nc2cccc(C(F)(F)F)c2)CC1` (configuration not stated), the IC50 is 13 µM.

As for `O=C(O)[C@H]1C[C@@H]1c1ccc(-c2ccc(CN(CCc3ccccn3)C(=O)C3CCC3)cc2)cc1`, the IC50 is 0.63 µM.

With `Cc1cccnc1CN1CCN(CCCOc2ccc(-c3ccc(C(N)=O)cc3)cc2)CC1`, the IC50 was 10 µM.

Regarding `COc1cnc2ccc(=O)n(CCN3CCC(NC(=O)c4ccc(Cl)cc4)CC3)c2c1`, the IC50 was 0.079 µM.

Take `Cn1nccc1-c1cc(OC(CN)c2ccccc2)cnc1-c1ccco1` (configuration not stated): the IC50 is 13 µM.

Regarding `N#Cc1nc(C=Cc2ccccc2)oc1NCc1cccnc1`, the half-inhibitory concentration (IC50) is 16 µM.

Take `O=S(=O)(NCC(c1cccnc1)N1CCN(c2ccc(F)cc2)CC1)c1cccs1` (configuration not stated): the IC50 was > 40 µM (inactive).

Take `CN(Cc1cccnc1)Cc1ccc(N2CCN(C(=O)C3(c4ccc(Cl)cc4)CC3)CC2)nc1`: the IC50 was 32 µM.

`O=C(Nc1n[nH]c(-c2ccccn2)n1)C1CC1c1ccccc1` (configuration not stated): the IC50 was > 13 µM (inactive).

Consider `O=C1COC(c2ccccc2)(c2ccccc2)CN1C1CCN(Cc2ccc(-n3ccnc3)cc2)CC1`, for which the half-inhibitory concentration (IC50) was 0.79 µM.

For the molecule `Cc1ccc2sc(NC(=O)Cn3cnc([N+](=O)[O-])n3)nc2c1`, the IC50 was 25 µM.

Regarding `CCC(CC)C(=O)Nc1cccc(C(=O)Nc2nnc(C3CCCCC3)s2)c1`, the IC50 is 0.25 µM.

`Nc1nc(-c2ccccn2)nc(N)c1Cc1c(F)cccc1Cl`: the IC50 was 2.5 µM.

Regarding `O=C(CSc1nnc2ccc(-c3ccc(F)cc3)nn12)N1CCCCC1`, the IC50 was 0.4 µM.

As for `COc1ccc2ncc(=O)n(CCN3CCC(NCc4ccc(-c5cccs5)cc4)CC3)c2n1`, the 50% inhibitory concentration (IC50) is 3.2 µM.

Consider `COc1ccc(-c2cc(C)no2)cc1S(=O)(=O)Nc1ccc(C)c(C)c1`, for which the IC50 is 20 µM.

On to `CCN(CC)c1ccc(S(=O)(=O)N(CC)CC)c2nonc12`, for which the IC50 is 25 µM.

As for `CN(CCOc1ccc(Cl)cc1)Cc1nc(N)nc(N(C)C)n1`, the IC50 is 25 µM.

Turning to `O=c1[nH]c(C=Cc2cccc(OCCOc3ccccc3)c2)nc(O)c1[N+](=O)[O-]`, the IC50 was 10 µM.

In the case of `CCC(CC)C(=O)Nc1ccc(-c2nnc(-c3ccc(OC)cc3)o2)cc1`, the IC50 was 0.5 µM.

On to `O=C1CN(Cc2ccco2)C2CS(=O)(=O)CC2N1c1ccc(Cl)cc1` (configuration not stated), for which the IC50 is 0.32 µM.

Regarding `CN(C)Cc1cccc(Nc2nccc(-c3ccc(NCCN)c(C#N)c3)n2)c1`, the IC50 was 0.05 µM.

In the case of `Cc1cc(C)n(-c2nc(NC(C)(C)C)nc(N3CCOCC3)n2)n1`, the IC50 was 13 µM.

Regarding `COc1ccc(CN(C)Cc2ccncc2)cc1-c1ccc(S(=O)(=O)NC2CCC2)s1`, the IC50 was > 40 µM (inactive).

Turning to `CCC(=O)Nc1ccc(C(=O)Nc2ccccc2-c2ccccc2)cc1`, the IC50 was 20 µM.

Turning to `N#Cc1cc([N+](=O)[O-])ccc1NC1CCCCCC1`, the IC50 is 2.5 µM.

In the case of `COc1ccc(C(=O)Nc2cc(C(F)(F)F)ccc2N2CCOCC2)c(OC)c1`, the 50% inhibitory concentration (IC50) was 10 µM.

`Clc1cc(Br)ccc1OCCCCn1ccnc1`: the IC50 is 10 µM.

For the molecule `O=C(Nc1ccccc1C(=O)Nc1ccccn1)c1ccco1`, the IC50 was 0.25 µM.

On to `c1ccc2[nH]c(-c3ccc(N4CCCC4)nc3)nc2c1`, for which the IC50 was 0.79 µM.

For `CCCCn1c(=O)c2c(N)onc2n(CCCC)c1=O`, the IC50 was 0.63 µM.

With `O=S(=O)(c1ccccc1C(F)(F)F)N1CCN(Cc2ccc(-n3ccnc3)cc2)CC1`, the IC50 is > 40 µM (inactive).

With `Nc1nccc(-c2csc(Nc3ccc(Cl)cc3)n2)n1`, the IC50 was > 40 µM (inactive).

As for `O=C(Cn1cnc2cc([N+](=O)[O-])ccc2c1=O)NCCc1ccc(Cl)cc1Cl`, the IC50 is 13 µM.

In the case of `Cc1cc(NC(=O)C2CCCCC2)n(-c2nc3c(c(=O)[nH]2)CCC3)n1`, the IC50 was 0.13 µM.

For `CCC(=O)Nc1ccc(-c2nc3ccc(Cl)cc3[nH]2)cc1`, the half-maximal inhibitory concentration (IC50) was 6.3 µM.

On to `O=C1OCc2ccc(Nc3nccc(-c4cnn5ncccc45)n3)cc21`, for which the IC50 is 0.004 µM.

In the case of `COc1ccc(CNc2nsc3ccccc23)cc1OC`, the IC50 is 7.9 µM.

Consider `COc1ccc(C(=O)Nc2ccc(NC(=O)CO)cc2)cc1`, for which the half-inhibitory concentration (IC50) was 0.25 µM.

`O=C1NCCn2ccc(Nc3nc(NC4CCC(O)CC4)ncc3Cl)c21` (configuration not stated): the half-inhibitory concentration (IC50) is 0.5 µM.

Take `N#Cc1cccc(Nc2nccc(N3CCC(NS(=O)(=O)c4cccc(C#N)c4)CC3)n2)c1`: the IC50 is 6.3 µM.

With `CC(C)Nc1nc(Cl)nc2ccccc12`, the IC50 is 5 µM.

Take `Cc1nc(-c2ccncc2)ncc1C(C)NC(=O)c1ccc(Cl)s1` (configuration not stated): the IC50 is 1 µM.

On to `Cc1cccc(NS(=O)(=O)c2ccc3c(c2)C(=O)c2cc(S(=O)(=O)Nc4cccc(C)c4C)ccc2-3)c1C`, for which the IC50 was 7.9 µM.

In the case of `NC(=O)c1ncc(N[C@@H]2CCCNC2)nc1Nc1cccc(Cl)c1`, the IC50 was 0.13 µM.

As for `Cc1ccc(NC(=O)c2ccnc(N3CCCC3)c2)cc1-c1cc(C(N)=O)ccc1C`, the IC50 is 0.1 µM.

Turning to `Cc1cc(Oc2cc(Cl)c(Cl)cc2Cl)n2ncnc2n1`, the IC50 is 0.79 µM.

Turning to `COc1cccc(CCNC(=O)C(c2cn[nH]c2)N2CCN(c3ccc(Cl)cc3)CC2)c1` (configuration not stated), the IC50 was 20 µM.

As for `Cc1cc(Nc2cc(C3CC3)[nH]n2)nc(N2CCC[C@H]2C(N)=O)n1`, the IC50 is 0.013 µM.

Regarding `O=C(CC1(O)C(=O)N(Cc2cccs2)c2ccc(Br)cc21)c1cccnc1` (configuration not stated), the IC50 is 0.63 µM.

Turning to `Cc1ccc2ccc(C(Nc3ccccn3)c3cccnc3)c(O)c2n1` (configuration not stated), the IC50 is 5 µM.

Turning to `COc1cccc(C(=O)[C@H]2C[C@@H]2CN(Cc2ccccn2)Cc2ccccn2)c1`, the IC50 is 16 µM.

As to `CCOc1ccc2nc(NC(=O)c3ccc([N+](=O)[O-])s3)sc2c1`, the IC50 is 1.3 µM.

As for `O=S1N=C(NCCCN(Cc2ccc(F)cc2)c2ccccn2)C(NCc2ccncc2)=N1` (configuration not stated), the IC50 is 0.32 µM.

As for `O=C(NCCc1ccccn1)C(c1cn[nH]c1)N1CCN(c2ccc(Cl)c(Cl)c2)CC1` (configuration not stated), the IC50 is 13 µM.

Turning to `Cc1ccnc(NS(=O)(=O)c2ccc(NC(=O)c3ccc([N+](=O)[O-])s3)cc2)n1`, the IC50 was 0.2 µM.

As to `CCCc1nc2nc(N)nc(N)c2cc1CC`, the IC50 was 20 µM.

Turning to `CCc1cc(C(=O)Nc2nccn2-c2ccccc2)cs1`, the 50% inhibitory concentration (IC50) was 3.2 µM.

Regarding `CC(=O)Nc1ccc(CN2CCC(N3CC(c4ccccc4)(c4ccccc4)OCC3=O)CC2)cc1`, the IC50 was 0.32 µM.

As to `O=C(Nc1nc(-c2ccccn2)cs1)N1C[C@H]2C[C@@]2(c2ccccc2)C1`, the concentration for half-maximal inhibition (IC50) is 0.5 µM.

In the case of `Cc1[nH]nc2c1C(c1ccc(OCc3ccccc3F)cc1)SCC(=O)N2` (configuration not stated), the IC50 is 25 µM.

For `O=C1CN(C2CCCc3c(OCc4ccncc4)cccc32)C(=O)N1C1CCCCC1` (configuration not stated), the concentration for half-maximal inhibition (IC50) was 16 µM.

With `Cc1nc(C(=O)Nc2ccc3c(c2)OCO3)nn1-c1ccc(Cl)cc1`, the IC50 is > 40 µM (inactive).

In the case of `O=C(CSc1ccc(F)cc1)N[C@@H](Cc1cnc[nH]1)C(=O)NCCc1ccccc1`, the IC50 was > 40 µM (inactive).

On to `CN(C)CCN(C)Cc1ccc(F)cc1NS(=O)(=O)c1ccc(Cl)c(Cl)c1`, for which the IC50 was 5 µM.
